Reference: patent US10125100B2, “Kinase inhibitors” (Respivert Limited, priority 2014, dated 2018)

Tested on: Jurkat cells
Experiment: (r) Cell cytotoxicity assay
Assay type: cell-based, human
Conditions: 24 hours
Method: 1×10^5 Jurkat cells (immortalised human T lymphocytes) are added to the appropriate number of wells of a 96 well plate in 100 μL of media (RPMI supplemented with 10% foetal bovine serum). 1 μL of DMSO control (final concentration 1.0% v/v) or test compound (final concentration 20, 5 or 1 μg/mL) is added to the wells and incubated at 37° C., 5% CO2. After 24 hours, the plate is centrifuged at 1200 rpm for 3 minutes and the supernatant discarded. Cells are then resuspended in 150 μL (final concentration 7.5 μg/mL) of propidium iodide (PI) in PBS and incubated at 37° C., 5% CO2 for 15 minutes. After 15 minutes, cells are analysed by flow cytometry (BD accuri) using the FL3 window. The % viability is calculated as the % of cells that are PI negative in the test wells normalised to the DMSO control.

| SMILES | % Viability at 1 μg/mL [%] | % Viability at 5 μg/mL [%] | % Viability at 20 μg/mL [%] |
| --- | --- | --- | --- |
| COc1cc(Nc2cc(Oc3ccc(NC(=O)Nc4cc(C(C)(C)C)cc(NS(C)(=O)=O)c4OC)c4ccccc34)ccn2)ccc1C(=O)NCCOCCO [17(bm), 4-((4-((4-(3-(5-(tert-Butyl)-2-methoxy-3-(methylsulfonamido)phenyl)ureido)naphthalen-1-yl)oxy)pyridin-2-yl)amino)-N-(2-(2-hydroxyethoxy)ethyl)-2-methoxybenzamide] | 103.6 | 0.2 | 0.5 |
| COc1cc(Nc2cc(Oc3ccc(NC(=O)Nc4cc(NS(C)(=O)=O)cc(C(C)(C)C)c4)c4ccccc34)ccn2)ccc1C(=O)NCCN1CCN(C)CC1 [17(bo), 4-((4-((4-(3-(3-(tert-Butyl)-5-(methylsulfonamido)phenyl)ureido)naphthalen-1-yl)oxy)pyridin-2-yl)amino)-2-methoxy-N-(2-(4-methylpiperazin-1-yl)ethyl)benzamide] | 98.5 | 45.3 | 14.0 |
| COc1cc(Nc2cc(Oc3ccc(NC(=O)Nc4cc(C(C)(C)C)cc(NS(C)(=O)=O)c4OC)c4ccccc34)ccn2)ccc1C(=O)NCCC(=O)N1C[C@H](O)[C@@H](O)[C@H](O)[C@H]1CO [17(cf), 4-((4-((4-(3-(5-(tert-Butyl)-2-methoxy-3-(methylsulfonamido)phenyl)ureido)naphthalen-1-yl)oxy)pyridin-2-yl)amino)-2-methoxy-N-(3-oxo-3-((2R,3R,4R,5S)-3,4,5-trihydroxy-2-(hydroxymethyl)piperidin-1-yl)propyl)benzamide] | 96.7 | 96.7 | 96.8 |
| COc1cc(Nc2cc(Oc3ccc(NC(=O)Nc4cc(C(C)(C)C)cc(NS(C)(=O)=O)c4OC)c4ccccc34)ccn2)ccc1-n1ccccc1=O [Example 31, N-(5-(tert-Butyl)-2-methoxy-3-(3-(4-((2-((3-methoxy-4-(2-oxopyridin-1 (2H)-yl)phenyl)amino)-pyridin-4-yl)oxy)naphthalen-1-yl)ureido)phenyl)methanesulfonamide] | 99.9 | 97.6 | 99.0 |
| COc1cc(Nc2cc(Oc3ccc(NC(=O)Nc4cc(C(C)(C)C)cc(NS(C)(=O)=O)c4OC)c4ccccc34)ccn2)ccc1C(=O)NCCO [17(bn), 4-((4-((4-(3-(5-(tert-Butyl)-2-methoxy-3-(methylsulfonamido)phenyl)ureido)naphthalen-1-yl)oxy)pyridin-2-yl)amino)-N-(2-hydroxyethyl)-2-methoxybenzamide] | 102.8 | 65.6 | 19.5 |
| COc1cc(Nc2cc(Oc3ccc(NC(=O)Nc4cc(C(C)(C)C)cc(NS(C)(=O)=O)c4OC)c4ccccc34)ccn2)cc(OC)c1C(=O)NCC1CCN(C)CC1 [17(ca), 4-((4-((4-(3-(5-(tert-Butyl)-2-methoxy-3-(methylsulfonamido)phenyl)ureido)naphthalen-1-yl)oxy)pyridin-2-yl)amino)-2,6-dimethoxy-N-((1-methylpiperidin-4-yl)methyl)benzamide] | 92.6 | 94.0 | 75.8 |
| COc1cc(Nc2cc(Oc3ccc(NC(=O)Nc4cc(C(C)(C)C)cc(C(N)=O)c4OC)c4ccccc34)ccn2)ccc1C(=O)O [Example 3, 4-((4-((4-(3-(5-(tert-Butyl)-3-carbamoyl-2-methoxyphenyl)ureido)naphthalen-1-yl)oxy)pyridin-2-yl)amino)-2-methoxybenzoic acid] | 93.4 | 95.9 | 91.9 |
| COc1cc(Nc2cc(Oc3ccc(NC(=O)Nc4cc(C(C)(C)C)cc(NS(C)(=O)=O)c4OC)c4ccccc34)ccn2)ccc1C(=O)NC(C)CN1CCN(C)CC1 (stereo not drawn) [17(bl), 4-((4-((4-(3-(5-(tert-Butyl)-2-methoxy-3-(methylsulfonamido)phenyl)ureido)naphthalen-1-yl)oxy)pyridin-2-yl)amino)-2-methoxy-N-(1-(4-methylpiperazin-1-yl)propan-2-yl)benzamide] | 103.6 | 0.2 | 0.5 |
| COc1cc(Nc2cc(Oc3ccc(NC(=O)Nc4cc(C(C)(C)C)cc(NS(C)(=O)=O)c4OC)c4ccccc34)ccn2)ccc1C(=O)N[C@@H](CO)C(=O)O [17(bj), (S)-2-(4-((4-((4-(3-(5-(tert-Butyl)-2-methoxy-3-(methylsulfonamido)phenyl)ureido)-naphthalen-1-yl)oxy)pyridin-2-yl)amino)-2-methoxybenzamido)-3-hydroxypropanoic acid] | 96.2 | 96.6 | 94.8 |
| COc1cc(Nc2cc(Oc3ccc(NC(=O)Nc4cc(C(C)(C)C)cc(NS(C)(=O)=O)c4OC)c4ccccc34)ccn2)ccc1C(=O)NCC(=O)O [17(ar), 2-(4-((4-((4-(3-(5-(tert-Butyl)-2-methoxy-3-(methylsulfonamido)phenyl)ureido)naphthalen-1-yl)oxy)pyridin-2-yl)amino)-2-methoxybenzamido)acetic acid] | 96.1 | 96.2 | 95.3 |
| COc1c(NC(=O)Nc2ccc(Oc3ccnc(Nc4ccc(C(=O)NCCN5CCN(C)CC5)c(N(C)C)c4)c3)c3ccccc23)cc(C(C)(C)C)cc1NS(C)(=O)=O [17(bq), 4-((4-((4-(3-(5-(tert-Butyl)-2-methoxy-3-(methylsulfonamido)phenyl)ureido)naphthalen-1-yl)oxy)pyridin-2-yl)amino)-2-(dimethylamino)-N-(2-(4-methylpiperazin-1-yl)ethyl)benzamide] | 87.2 | 55.3 | 2.0 |
| COc1cc(Nc2cc(Oc3ccc(NC(=O)Nc4cc(C(C)(C)C)cc(NS(C)(=O)=O)c4OC)c4ccccc34)ccn2)ccc1C(=O)NCCC1(O)CCN(C)CC1 [17(bg), 4-((4-((4-(3-(5-(tert-Butyl)-2-methoxy-3-(methylsulfonamido)phenyl)ureido)naphthalen-1-yl)oxy)pyridin-2-yl)amino)-N-(2-(4-hydroxy-1-methylpiperidin-4-yl)ethyl)-2-methoxy benzamide] | 86.5 | 60.0 | 0.3 |
| COc1c(NC(=O)Nc2ccc(Oc3ccnc(Nc4ccc(P(C)(=O)O)c(N(C)C)c4)c3)c3ccccc23)cc(C(C)(C)C)cc1NS(C)(=O)=O [Example 68, [4-[[4-[[4-[[5-tert-Butyl-3-(methanesulfonamido)-2-methoxy-phenyl]carbamoylamino]-1-naphthyl]oxy]-2-pyridyl]amino]-2-(dimethylamino)phenyl]-methyl-phosphinic acid] | 95.6 | 92.7 | 90.2 |
| COc1cc(Nc2cc(Oc3ccc(NC(=O)Nc4cc(C(C)(C)C)cc(NS(C)(=O)=O)c4OC)c4ccccc34)ccn2)ccc1C(=O)N(C)CCN1CCN(C)CC1 [17(bh), 4-((4-((4-(3-(5-(tert-Butyl)-2-methoxy-3-(methylsulfonamido)phenyl)ureido)naphthalen-1-yl)oxy)pyridin-2-yl)amino)-2-methoxy-N-methyl-N-(2-(4-methylpiperazin-1-yl)ethyl)benzamide] | 99.5 | 67.8 | 0.6 |
| COc1cc(Nc2nccc(Oc3ccc(NC(=O)Nc4cc(C(C)(C)C)cc(NS(C)(=O)=O)c4OC)c4ccccc34)n2)ccc1C(=O)NCCCN1CCOCC1 [17(ao), 4-((4-((4-(3-(5-(tert-Butyl)-2-methoxy-3-(methylsulfonamido)phenyl)ureido)naphthalen-1-yl)oxy)pyrimidin-2-yl)amino)-2-methoxy-N-(3-morpholinopropyl)benzamide] | 89.2 | 16.5 | 1.6 |
| COc1cc(Nc2cc(Oc3ccc(NC(=O)Nc4cc(C(C)(C)C)cc(NS(C)(=O)=O)c4OC)c4ccccc34)ccn2)ccc1-c1nn[nH]n1 [Example 24, N-(5-(tert-Butyl)-2-methoxy-3-(3-(4-((2-((3-methoxy-4-(2H-tetrazol-5-yl)phenyl)amino)pyridin-4-yl)oxy)naphthalen-1-yl)ureido)phenyl)methanesulfonamide] | 104.3 | 92.4 | 9.7 |
| CCC(=O)NS(=O)(=O)c1ccc(Nc2nccc(Oc3ccc(NC(=O)Nc4cc(C(C)(C)C)cc(NS(C)(=O)=O)c4OC)c4ccccc34)n2)cc1OC [17(bk), N-((4-((4-((4-(3-(5-(tert-Butyl)-2-methoxy-3-(methylsulfonamido)phenyl)ureido)-naphthalen-1-yl)oxy)pyrimidin-2-yl)amino)-2-methoxyphenyl)sulfonyl)propionamide] | 93.0 | 71.8 | 65.6 |
